For one data set, the system named is male mice. It counts as in vivo. The text has this:
(§1) 2. Prolongation of the cerebral survival time in the case of hypoxaemia caused by sub-atmospheric pressure.
(§2) This neuropathological behaviour is induced in male mice by a progressive reduction of the pressure to 26.66 kPa in an observation chamber and is used as an indicator of the cerebral hypoxia period. It ends in the death of the experimental animal.

The nature of data set [1]: LD50 / toxicity and toleration. It is filed as in vivo, mice. Conditions: mouse, in vivo, mice.
A further data set relates to mice. The experiment in a line: LD50 / toxicity and toleration. Particulars: in words. It is filed as in vivo.
Another data set deals with thrombocytes. The experiment in a line: Inhibition of aggregation of thrombocytes. Particulars: in words.
A short description of data set [2]: Tranquillising properties. It is filed as in vivo. Conditions: in words.
Data set [3] is described as follows: Cerebral protection / vaso-active and metabolism-regulating properties (overall). It is filed as in vivo, mice. Conditions: in words. The method, then: The following methods have been used to investigate the pharmacodynamic properties of the compounds according to the invention:
1. Prolongation of cerebral survival time under hypoxaemia caused by NaNO2.
Starting from the results of Gibson and Blass (J. Neurochemistry 27, 1976), a cerebral hypoxia is produced in male mice by means of NaNO2 (225 mg/kg, subcutaneous). The cerebral hypoxia period is marked by a characteristic spasmodic behaviour and ends in the death of the experimental animals.
as §1, §2
3. Protection against amnesia induced by electric shock.
Starting from the results of Taber and Banuazizi (Psychopharmakologia 9, 1966), male mice are taught not to enter a certain compartment of the cage in order to avoid an electric shock. The response is extinguished by means of an electric shock administered via head electrodes (electric shock amnesia).

From patent publication US4341790A, “Pyrrolidinylalkylcarboxylic acid amide derivatives, their preparation and pharmaceutical compositions containing them” (A. Nattermann & Cie. GmbH, priority 1979, dated 1982) come the findings set out here.

One may read the LD50 as the dose expected to kill half of the subjects tested. A lower LD50 goes with greater toxicity.

Structures are written as SMILES. “Also recorded” adds a separate entry of the source. Like-named read-outs stand apart in the source and are kept apart here.

In the case of `COc1ccc(Cc2nccc3cc(OC)c(OC)cc23)cc1OC` [Papaverine, papaverine], the Sub-atmospheric pressure hypoxaemia entry in the data set with male mice (iv) is reported as “-”.
Take `NC(=O)CN1CCCC1=O` [Piracetam, piracetam]: in the data set with male mice (po), the Sub-atmospheric pressure hypoxaemia entry is on record as “+”.
`Cc1ncc(CSSCc2cnc(C)c(O)c2CO)c(CO)c1O` [Pyritinol, pyritinol]: the Sub-atmospheric pressure hypoxaemia entry with male mice (po) is listed as “-”.
Still for that read-out and setting: for `CN(C)CCOC(=O)COc1ccc(Cl)cc1` [Meclofenoxate, meclofenoxate] the value was “-”.
As to `Cc1cccc(C)c1NC(=O)CN1CCCC1=O` [Example 6, 2-Oxo-1-pyrrolidinylacetic acid, 2,6-dimethylanilide], the Sub-atmospheric pressure hypoxaemia entry with male mice (po) was “+”. Besides, the LD50 was 421 mg/kg in data set [1] (iv, administered intravenously) and 1770 mg/kg in data set [1] (po, administered orally). The toleration entry in the data set on mice is given as “well tolerated; also recorded: good toleration”. Also, in the data set on mice, the toxicity entry is reported as “very low toxicity”. The “effect of inhibiting aggregation of thrombocytes” value with thrombocytes is “inhibiting aggregation of thrombocytes”. For the same compound, the tranquillising properties entry in data set [2] is reported as “good tranquillising properties”. The “activity / effectiveness (vaso-active, metabolism-regulating, cerebral protection)” value in data set [3] is on record as “highly active; also recorded: excellent activity”; in data set [3] (listed as 2-Oxo-1-pyrrolidinylacetic acid-2,6-dimethylanilide) it was “particularly effective”.
For `CC(C)NCC(O)COc1cccc2ccccc12` (stereo not drawn) [Propranol, propranolol], the Sub-atmospheric pressure hypoxaemia entry with male mice (po) is on record as “-”.
With `O=C(CN1CCCC1=O)Nc1ccccc1` [PA, 2-oxo-1-pyrrolidinylacetic acid anilide, reference compound], the Sub-atmospheric pressure hypoxaemia result in the data set with male mice (po) is reported as “-”. For the same compound, the “activity / effectiveness (vaso-active, metabolism-regulating, cerebral protection)” value in data set [3] is recorded as “exhibits none of these effects”.
For the compound `CC[C@]12CCCN3CCc4c(n(c5ccccc45)[C@@](O)(C(=O)OC)C1)[C@@H]32` [Vincamine, vincamine], in the data set with male mice (po), the Sub-atmospheric pressure hypoxaemia entry is “+”.
Still for that read-out and setting: to `C(=C\c1ccccc1)/CN1CCN(C(c2ccccc2)c2ccccc2)CC1` [Cinnarizine, cinnarizine] belongs “-”.
